# Test results taken from patent publication US10909691B2, “Automatically classifying animal behavior” (PRESIDENT AND FELLOWS OF HARVARD COLLEGE, priority 2016, dated 2021).
# Tested on: mice
# Assay: Innate behavioral response to odorant in square odor box (3D depth imaging, AR-HMM analysis)
# Type: in vivo, mouse
smiles,measurement,setting,value
CC1=NC(C)SC1C (stereo not drawn) [TMT],observed behavior of mice on odor exposure,TMT delivered to one quadrant of the square box via olfactometer,avoided the quadrant containing the predator cue and displayed prolonged periods of immobility traditionally described as freezing behavior
same,per frame entropy rate with self-transitions,after TMT exposure,0.64±0.02 bits
same,per frame entropy rate without self-transitions,after TMT exposure,3.66±0.08 bits
same,number of times the most commonly-expressed freezing trigram was expressed,"after TMT exposure, in 300 minutes of imaging",716 times
same,change in behavioral modules relative to control,"n=15 in TMT, n=25 control, model co-trained on both datasets","several modules were up-or down-regulated after TMT exposure, but no new modules were introduced or eliminated relative to control"
same,average during-sequence velocity of freezing module sequences,"under the influence of TMT, 5% concentration, delivered to one quadrant of the box",−0.14±0.54 mm/sec
